The values below come from patent US7141601B2, “Dendrite elongation inhibitor for melanocyte and skin preparation for external use containing the same” (Pola Chemiocal Industries Inc., priority 2002, dated 2006).

The structures appear in SMILES notation.

The test system of this test is Normal human melanocyte. Description: inhibitory action on the elongation of dendrites using human melanocytes. The format is cell-based. The source says:
According to a method shown below, inhibitory action on the elongation of dendrites was examined using human melanocytes. (Reagent, etc.) Cells, basal media, and amplification additives were purchased from KURABO INDUSTRIES LTD. • (Cell) Normal human melanocyte • (Medium) Basal medium (Medium 154S) supplemented with reagents described below • (Reagent) Amplification additive: bovine pituitary extract (BPE) (final concentration of 0.4% v/v in the medium), fetal bovine serum • (FBS) (final concentration of 0.5% v/v in the medium), human recombinant basic fibroblast growth factor (rFGF-B) (final concentration of 3 ng/ml in the medium), hydrocortisone (final concentration of 0.18 μg/ml in the medium), insulin (final concentration 5 μg/ml in the medium), transferrin (final concentration of 5 μg/ml in the medium), phorbol 12-myristate 13-acetate (PMA) (final concentration of 10 ng/ml in the medium), heparin (final concentration of 3 μg/ml in the medium), and PSA solution (mixture solution of penicillin concentration of 50,000 Unit/ml, streptomycin concentration of 50 μg/ml, and amphotericin B concentration of 12.5 μg/ml; 1-ml addition with respect to 500 ml of the medium) (Method)
Compound 1 (methylophiopogonanone B) obtained in the above-described example of production was diluted in a basal medium so that the concentration was brought up to 100 μg/ml, to make a sample solution. […]

In turn, `COc1ccc(CC2COc3c(C)c(O)c(C)c(O)c3C2=O)cc1` (centres unmarked) [Compound 1, 2,3-dihydro-3-[(4-methoxyphenyl)methyl]-5,7-dihydroxy-6,8-dimethyl-4H-1-benzopyran-4-on] returned a Length of dendrite (50 μl of 100 μg/ml sample solution added to 200 μl medium, observed 24 hours after addition, growth factors in medium) of 22 ± 6 μm. For the setting “vs control with basal medium only, 24 hours after addition”, the “inhibition against the elongation of dendrites (in words)” value is “elongation is inhibited”.
